Activity calls are given as the source filed them. Peptide text beside a SMILES is read from it.
Columns and labels:
[1] = target: T1, Mitogen-activated protein kinase 8/9 (Homo sapiens) (UniProt P45983+P45984); assay: Inhibition of LPS-induced phosphorylation of Jnk1/2 in mouse peritoneal macrophage pretreated for 1 hr followed by LPS stimulation measured after 30 mins by Western blot analysis; assay type: tissue-based; settings: dose 5-20 µg/ml, time 1.5 hrs
Mus musculus [2] = assay: Immunomodulatory activity in mouse assessed as increase number of inflammatory monocytes in peritoneal cavity at 10 mg/kg, ip measured after 5 to 24 hrs by flow cytometry; assay type: functional, organism-based; settings: time 5-24 hrs
Mus musculus [3] = assay: Immunomodulatory activity in Kunming mouse infected with vancomycin-resistant Staphylococcus aureus assessed as increased in IL-10 level in peritoneal lavage at 10 mg/kg, ip administered 4 hrs after infection by ELISA; assay type: functional, organism-based
Macrophage [4] = assay: Inhibition of NFkappaB in mouse peritoneal macrophage assessed as LPS-induced IkappaBalpha degradation at 5 to 20 ug/ml pretreated for 1 hr followed by LPS stimulation measured after 30 mins by Western blot analysis; assay type: tissue-based; settings: dose 20.0 µg/ml, time 1.5 hrs
Candida albicans [5] = assay: Antimicrobial activity against Candida albicans IS 08030401 incubated for 16 to 18 hrs by fluorescence microplate reader analysis; assay type: functional; settings: time 16-18 hrs
Mus musculus [6] = assay: Immunomodulatory activity in mouse assessed as increase […] of MCP-1 in peritoneal cavity at 10 mg/kg, ip measured after 5 to 24 hrs by ELISA; assay type: functional, organism-based; settings: time 5-24 hrs
Staphylococcus aureus [7] = assay: In vivo antibacterial activity against vancomycin resistant Staphylococcus aureus infected in kunming mouse assessed as reduction in bacterial load in peritoneum at 10 mg/kg, sc measured 18 hrs after infection; assay type: functional, organism-based
Macrophage [8] = assay: Induction of ROS production in mouse peritoneal macrophage by fluorescence assay; assay type: functional, tissue-based; settings: dose 10-40 µg/ml
Neutrophil [9] = assay: Immunomodulatory activity in neutrophils (unknown origin) assessed as increase in CXCL1/KC level at 20 ug/ml measured after 12 hrs by ELISA; assay type: functional, cell-based; settings: dose 20.0 µg/ml
Staphylococcus aureus [10] = assay: In vivo antibacterial activity against vancomycin resistant Staphylococcus aureus infected in ip dosed kunming mouse assessed as increase in survival rate administered 4 hrs after infection and measured up to 7 days after infection; assay type: functional, organism-based; settings: dose 5-20 mg/kg, time day <=7
[11] = Toxicity in Kunming mouse assessed as effect on MCP-1 levels at 10 mg/kg, ip measured after 5 hrs by ELISA; assay type: organism-based; settings: in vivo
Staphylococcus aureus [12] = assay: Antibacterial activity against vancomycin-resistant Staphylococcus aureus assessed as neutrophil-induced bacterial cell killing neutrophils pretreated with compound measured after 15 to 60 mins; assay type: functional, organism-based; settings: dose 10-40 µg/ml, time 15-60 min
Candida albicans [13] = assay: Antimicrobial activity against Candida albicans IS 08022821 incubated for 16 to 18 hrs by fluorescence microplate reader analysis; assay type: functional; settings: time 16-18 hrs
Escherichia coli [14] = assay: In vivo antibacterial activity against Escherichia coli ATCC 25922 infected in kunming mouse assessed as decrease in bacterial load in peritoneal lavage at 10 mg/kg, ip administered 4 hrs after infection and measured 18 hrs after infection; assay type: functional, organism-based; settings: time 14.0 hrs
Staphylococcus aureus [15] = assay: Antimicrobial activity against methicillin resistant Staphylococcus aureus IS 08032712, incubated for 16 to 18 hrs by fluorescence microplate reader analysis; assay type: functional; settings: time 16-18 hrs
Staphylococcus aureus [16] = assay: In vivo antibacterial activity against vancomycin resistant Staphylococcus aureus infected in kunming mouse assessed as reduction in bacterial load in peritoneal lavage at 10 mg/kg, ip administered 24 hrs before infection; assay type: functional, organism-based
Staphylococcus aureus [17] = assay: Antimicrobial activity against methicillin sensitive Staphylococcus aureus ATCC 25923 incubated for 16 to 18 hrs by fluorescence microplate reader analysis; assay type: functional; settings: time 16-18 hrs
[18] = tested on: Stenotrophomonas maltophilia; assay: Antimicrobial activity against Stenotrophomonas maltophilia IS 090223 incubated for 16 to 18 hrs by fluorescence microplate reader analysis; assay type: functional; settings: time 16-18 hrs
Neutrophil [19] = assay: Immunomodulatory activity in neutrophils (unknown origin) assessed as effect on IL-6 level at 20 ug/ml measured after 12 hrs by ELISA; assay type: functional, cell-based; settings: dose 20.0 µg/ml
Escherichia coli [20] = assay: Antibiofilm activity against Escherichia coli assessed as biofilm eradication at BIC-5 by XTT and crystal violet staining assay relative to control; assay type: functional
Mus musculus [21] = assay: Immunomodulatory activity in Kunming mouse infected with vancomycin-resistant Staphylococcus aureus assessed as increased in IL-10 level in peritoneal lavage at 10 mg/kg, ip administered 24 hrs before infection by ELISA; assay type: functional, organism-based
Staphylococcus aureus [22] = assay: Antibacterial activity against vancomycin-resistant Staphylococcus aureus assessed as bacterial growth inhibition in presence of 80% human serum incubated upto 8 hrs; assay type: functional; settings: time hrs <=8
[23] = Induction of neutrophil extracellular trap formation in neutrophil (unknown origin) at 20 ug/ml measured after 3 hrs by fluorescence analysis; assay type: functional; settings: dose 20 µg/ml
Macrophage [24] = assay: Immunomodulatory activity in mouse peritoneal macrophage assessed as inhibition of LPS-induced IL-6 level measured after 24 hrs by ELISA; assay type: functional; settings: dose 5-20 µg/ml
Pseudomonas aeruginosa = assay: Antimicrobial activity against Pseudomonas aeruginosa IS 08031014 incubated for 16 to 18 hrs by fluorescence microplate reader analysis; assay type: functional; settings: time 16-18 hrs
Staphylococcus aureus [25] = assay: In vivo antibacterial activity against vancomycin resistant Staphylococcus aureus infected in kunming mouse assessed as reduction in bacterial load in spleen at 10 mg/kg, ip administered 24 hrs before infection; assay type: functional, organism-based
Mus musculus [26] = assay: Immunomodulatory activity in Kunming mouse infected with vancomycin-resistant Staphylococcus aureus assessed as decreased in IL-1beta level in peritoneal lavage at 10 mg/kg, ip administered 4 hrs after infection by ELISA; assay type: functional, organism-based
Mus musculus [27] = assay: Immunomodulatory activity in Kunming mouse infected with vancomycin-resistant Staphylococcus aureus assessed as decreased in TNF-alpha level in peritoneal lavage at 10 mg/kg, ip administered 24 hrs before infection by ELISA; assay type: functional, organism-based
Staphylococcus aureus [28] = assay: Antibacterial activity against vancomycin-resistant Staphylococcus aureus assessed as bacterial growth inhibition in aqueous solution incubated upto 96 hrs; assay type: functional; settings: time hrs <=96
Neutrophil [29] = assay: Immunomodulatory activity in neutrophils (unknown origin) assessed as effect on TNF-alpha level at 20 ug/ml measured after 12 hrs by ELISA; assay type: functional, cell-based; settings: dose 20.0 µg/ml
Nocardia asteroides = assay: Antimicrobial activity against Nocardia asteroids incubated for 16 to 18 hrs by fluorescence microplate reader analysis; assay type: functional; settings: time 16-18 hrs
[30] = Stability of compound in 80% human serum assessed as intact compound remained measured upto 8 hrs by HPLC analysis; assay type: cell-free; settings: time hrs <=8
Neutrophil [31] = assay: Immunomodulatory activity in neutrophils (unknown origin) assessed as inhibition of LPS-induced MCP-1 level at 5 to 20 ug/ml by ELISA; assay type: functional, cell-based; settings: dose 5-20 µg/ml
LAD2 = assay: Cytotoxicity against human LAD2 cells assessed as mast cell degranulation at 100 ug/ml relative to control; assay type: cell-based; settings: at 100 µg/mL
[32] = target: T1, Mitogen-activated protein kinase 8/9 (Homo sapiens); assay: Inhibition of LPS-induced phosphorylation of Jnk1/2 in mouse peritoneal macrophage at 20 ug/ml pretreated for 1 hr followed by LPS stimulation measured after 30 mins by Western blot analysis relative to control; assay type: tissue-based; settings: dose 20.0 µg/ml, time 1.5 hrs
Neutrophil [33] = assay: Immunomodulatory activity in neutrophils (unknown origin) assessed as inhibition of LPS-induced TNF-alpha level at 5 to 20 ug/ml by ELISA; assay type: functional, cell-based; settings: dose 5-20 µg/ml
Nakaseomyces glabratus = assay: Antimicrobial activity against Candida glabrata IS 08A802 incubated for 16 to 18 hrs by fluorescence microplate reader analysis; assay type: functional; settings: time 16-18 hrs
Staphylococcus aureus [34] = assay: Antibacterial activity against vancomycin-resistant Staphylococcus aureus assessed as bactericidal activity incubated at 0 to 90 degree C for 1 hr; assay type: functional, organism-based

T1 sequence (P45983 whole entry, looked up): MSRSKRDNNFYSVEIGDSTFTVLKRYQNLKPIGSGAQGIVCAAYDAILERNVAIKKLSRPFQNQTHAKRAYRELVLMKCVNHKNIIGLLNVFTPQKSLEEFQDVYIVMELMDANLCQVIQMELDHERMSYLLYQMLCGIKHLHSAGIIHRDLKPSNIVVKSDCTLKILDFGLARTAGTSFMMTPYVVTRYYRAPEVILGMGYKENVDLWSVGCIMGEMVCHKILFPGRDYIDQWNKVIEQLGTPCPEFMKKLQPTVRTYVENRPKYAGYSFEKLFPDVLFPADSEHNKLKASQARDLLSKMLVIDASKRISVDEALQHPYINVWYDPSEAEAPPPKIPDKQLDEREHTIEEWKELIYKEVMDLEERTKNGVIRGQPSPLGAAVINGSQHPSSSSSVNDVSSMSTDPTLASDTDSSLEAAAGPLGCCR
T1 sequence (P45984 whole entry, looked up): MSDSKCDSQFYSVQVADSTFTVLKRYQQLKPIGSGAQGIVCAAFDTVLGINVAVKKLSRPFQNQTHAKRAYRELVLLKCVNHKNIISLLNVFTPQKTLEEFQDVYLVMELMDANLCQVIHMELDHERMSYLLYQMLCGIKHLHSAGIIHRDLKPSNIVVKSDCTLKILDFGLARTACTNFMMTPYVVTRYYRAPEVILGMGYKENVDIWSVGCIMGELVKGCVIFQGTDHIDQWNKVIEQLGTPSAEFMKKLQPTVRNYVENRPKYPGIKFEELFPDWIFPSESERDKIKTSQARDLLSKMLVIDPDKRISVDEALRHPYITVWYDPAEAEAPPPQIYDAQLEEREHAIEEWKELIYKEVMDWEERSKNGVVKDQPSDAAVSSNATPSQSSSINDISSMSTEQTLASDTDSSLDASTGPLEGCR

CC[C@H](C)[C@H](NC(=O)[C@@H]1CCCN1C(=O)[C@@H](NC(=O)[C@@H](NC(=O)CNC(=O)CNC(=O)[C@@H](NC(=O)[C@H](Cc1ccccc1)NC(=O)[C@@H](NC(=O)[C@H](CCCCN)NC(=O)[C@@H](NC(=O)[C@H](CCCCN)NC(=O)[C@H](CCCCN)NC(=O)[C@H](Cc1ccccc1)NC(=O)[C@@H](NC(=O)[C@H](CCCCN)NC(=O)[C@H](CCCNC(=N)N)NC(=O)[C@H](Cc1ccccc1)NC(=O)CNC(=O)[C@H](CCCCN)NC(=O)[C@H](CCCCN)NC(=O)[C@@H](NC(=O)[C@H](CCCCN)NC(=O)[C@H](CCCNC(=N)N)NC(=O)[C@H](Cc1ccccc1)NC(=O)[C@H](Cc1ccccc1)NC(=O)[C@H](CCCCN)NC(=O)[C@H](CCCCN)NC(=O)[C@H](Cc1ccccc1)NC(=O)[C@H](CCCNC(=N)N)NC(=O)[C@@H](N)CCCCN)[C@@H](C)CC)[C@@H](C)CC)[C@@H](C)O)[C@@H](C)CC)[C@@H](C)CC)[C@@H](C)O)[C@@H](C)CC)C(=O)O (H-KRFKKFFRKIKKGFRKIFKKTKIFIGGTIPI-OH)
85%: inhibition [32]
10.97%: Activity (LAD2)
65.98%: Activity (Escherichia coli [20])
Non-Toxic: Activity [11]
1.17 µg/mL: MIC (Candida albicans [5]) | MIC (Candida albicans [13]) | MIC (Staphylococcus aureus [15]) | MIC (Staphylococcus aureus [17]) | MIC [18] | MIC (Pseudomonas aeruginosa) | MIC (Nocardia asteroides) | MIC (Nakaseomyces glabratus)
inactive: Activity (Neutrophil [19]) | Activity (Neutrophil [29]) | inhibition (Neutrophil [31])
active: inhibition [1] Dose-dependent effect | Activity (Mus musculus [2]) | Activity (Mus musculus [3]) | inhibition (Macrophage [4]) | Activity (Mus musculus [6]) | Activity (Staphylococcus aureus [7]) | Activity (Macrophage [8]) Dose-dependent effect | Activity (Neutrophil [9]) | Activity (Staphylococcus aureus [10]) Dose-dependent effect | Activity (Staphylococcus aureus [12]) Dose-dependent effect | Activity (Escherichia coli [14]) | Activity (Staphylococcus aureus [16]) | Activity (Mus musculus [21]) | inhibition (Macrophage [24]) Dose-dependent effect | Activity (Staphylococcus aureus [25]) | Activity (Mus musculus [26]) | Activity (Mus musculus [27]) | inhibition (Neutrophil [33]) | Activity (Staphylococcus aureus [34])
32.53%: Activity [23]
25 µg/mL: MIC (Staphylococcus aureus [22])
4.96 µg/mL: MIC (Staphylococcus aureus [28])
30%: Stability [30]
